Laboratory results: ChEMBL document CHEMBL1141507, “Entry into a new class of protein kinase inhibitors by pseudo ring design” (Bioorg Med Chem Lett, 2008)

Tests used:
[1] = Inhibition of p38 kinase
Ephrin type-B receptor 4 = target: T1, Ephrin type-B receptor 4 (Homo sapiens, UniProt P54760); assay: Inhibition of EphB4
T1 sequence (P54760 whole entry): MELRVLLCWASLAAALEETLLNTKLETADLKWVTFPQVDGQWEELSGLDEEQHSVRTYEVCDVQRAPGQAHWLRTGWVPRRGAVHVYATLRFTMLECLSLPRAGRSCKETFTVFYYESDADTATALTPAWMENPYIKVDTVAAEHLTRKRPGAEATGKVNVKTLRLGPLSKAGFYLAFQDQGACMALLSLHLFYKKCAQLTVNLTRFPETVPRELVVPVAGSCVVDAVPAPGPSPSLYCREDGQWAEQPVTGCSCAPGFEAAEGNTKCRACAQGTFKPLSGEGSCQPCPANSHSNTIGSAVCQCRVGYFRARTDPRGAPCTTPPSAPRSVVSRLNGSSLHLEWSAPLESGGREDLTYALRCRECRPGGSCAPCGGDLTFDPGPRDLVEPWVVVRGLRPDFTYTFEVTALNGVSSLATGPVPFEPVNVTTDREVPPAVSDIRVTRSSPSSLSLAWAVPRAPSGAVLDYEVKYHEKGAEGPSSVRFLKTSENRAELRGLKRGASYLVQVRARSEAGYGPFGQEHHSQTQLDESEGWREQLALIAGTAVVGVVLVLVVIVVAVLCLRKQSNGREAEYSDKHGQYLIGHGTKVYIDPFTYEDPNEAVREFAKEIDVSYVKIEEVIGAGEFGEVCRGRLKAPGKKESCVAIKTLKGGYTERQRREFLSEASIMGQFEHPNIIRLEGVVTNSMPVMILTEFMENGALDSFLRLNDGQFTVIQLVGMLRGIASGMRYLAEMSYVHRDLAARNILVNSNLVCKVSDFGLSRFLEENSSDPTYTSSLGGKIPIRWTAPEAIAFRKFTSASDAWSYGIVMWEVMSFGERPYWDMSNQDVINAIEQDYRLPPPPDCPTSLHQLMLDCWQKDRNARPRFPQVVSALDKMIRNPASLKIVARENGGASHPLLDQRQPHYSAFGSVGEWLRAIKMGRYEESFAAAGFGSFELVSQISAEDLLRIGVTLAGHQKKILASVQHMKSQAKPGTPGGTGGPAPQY

[2] = Inhibition of PKA
[3] = target: Insulin-like growth factor 1 receptor (Homo sapiens, UniProt P08069); assay: Inhibition of IGF1R
[4] = target: T2, Receptor-type tyrosine-protein kinase FLT3 (Homo sapiens, UniProt P36888); assay: Inhibition of FLT3
T2 sequence (P36888 whole entry): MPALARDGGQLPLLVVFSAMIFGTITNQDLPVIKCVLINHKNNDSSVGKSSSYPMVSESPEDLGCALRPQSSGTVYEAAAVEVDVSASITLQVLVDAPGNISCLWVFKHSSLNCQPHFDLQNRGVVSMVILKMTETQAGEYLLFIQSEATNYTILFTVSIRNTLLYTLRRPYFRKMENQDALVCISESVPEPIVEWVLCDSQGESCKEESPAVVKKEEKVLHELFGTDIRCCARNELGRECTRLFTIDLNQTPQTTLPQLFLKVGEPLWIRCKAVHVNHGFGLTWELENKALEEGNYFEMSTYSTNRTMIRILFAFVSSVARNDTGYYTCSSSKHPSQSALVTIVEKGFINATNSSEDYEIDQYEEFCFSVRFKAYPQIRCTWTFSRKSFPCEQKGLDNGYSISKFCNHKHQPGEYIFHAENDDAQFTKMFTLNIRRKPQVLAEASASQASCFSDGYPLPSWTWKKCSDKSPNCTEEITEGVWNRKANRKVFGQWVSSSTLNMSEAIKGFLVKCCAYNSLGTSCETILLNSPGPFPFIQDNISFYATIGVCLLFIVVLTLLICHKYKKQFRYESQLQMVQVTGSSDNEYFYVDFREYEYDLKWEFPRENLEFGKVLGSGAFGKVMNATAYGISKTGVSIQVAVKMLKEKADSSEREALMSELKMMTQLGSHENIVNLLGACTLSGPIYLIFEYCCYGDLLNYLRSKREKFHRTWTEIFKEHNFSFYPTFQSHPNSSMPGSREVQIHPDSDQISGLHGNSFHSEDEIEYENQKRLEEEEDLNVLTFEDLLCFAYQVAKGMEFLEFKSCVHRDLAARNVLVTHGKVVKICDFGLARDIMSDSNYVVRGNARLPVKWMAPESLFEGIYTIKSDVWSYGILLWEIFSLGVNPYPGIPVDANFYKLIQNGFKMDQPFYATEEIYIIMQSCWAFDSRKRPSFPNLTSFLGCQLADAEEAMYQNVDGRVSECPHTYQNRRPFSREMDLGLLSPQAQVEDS

[5] = target: Cyclin-dependent kinase 2 (Homo sapiens, UniProt P24941); assay: Inhibition of CDK2
[6] = target: Mast/stem cell growth factor receptor Kit (Homo sapiens, UniProt P10721); assay: Inhibition of cKit
[7] = target: Fibroblast growth factor receptor 1 (Homo sapiens, UniProt P11362); assay: Inhibition of FGFR1
[8] = target: Proto-oncogene tyrosine-protein kinase Src (Homo sapiens, UniProt P12931); assay: Inhibition of cSrc
[9] = target: Hepatocyte growth factor receptor (Homo sapiens, UniProt P08581); assay: Inhibition of cMet
[10] = target: Vascular endothelial growth factor receptor 2 (Homo sapiens, UniProt P35968); assay: Inhibition of KDR
[11] = target: T3, Tyrosine-protein kinase receptor UFO (Homo sapiens, UniProt P30530); assay: Inhibition of Axl kinase
T3 sequence (P30530 whole entry): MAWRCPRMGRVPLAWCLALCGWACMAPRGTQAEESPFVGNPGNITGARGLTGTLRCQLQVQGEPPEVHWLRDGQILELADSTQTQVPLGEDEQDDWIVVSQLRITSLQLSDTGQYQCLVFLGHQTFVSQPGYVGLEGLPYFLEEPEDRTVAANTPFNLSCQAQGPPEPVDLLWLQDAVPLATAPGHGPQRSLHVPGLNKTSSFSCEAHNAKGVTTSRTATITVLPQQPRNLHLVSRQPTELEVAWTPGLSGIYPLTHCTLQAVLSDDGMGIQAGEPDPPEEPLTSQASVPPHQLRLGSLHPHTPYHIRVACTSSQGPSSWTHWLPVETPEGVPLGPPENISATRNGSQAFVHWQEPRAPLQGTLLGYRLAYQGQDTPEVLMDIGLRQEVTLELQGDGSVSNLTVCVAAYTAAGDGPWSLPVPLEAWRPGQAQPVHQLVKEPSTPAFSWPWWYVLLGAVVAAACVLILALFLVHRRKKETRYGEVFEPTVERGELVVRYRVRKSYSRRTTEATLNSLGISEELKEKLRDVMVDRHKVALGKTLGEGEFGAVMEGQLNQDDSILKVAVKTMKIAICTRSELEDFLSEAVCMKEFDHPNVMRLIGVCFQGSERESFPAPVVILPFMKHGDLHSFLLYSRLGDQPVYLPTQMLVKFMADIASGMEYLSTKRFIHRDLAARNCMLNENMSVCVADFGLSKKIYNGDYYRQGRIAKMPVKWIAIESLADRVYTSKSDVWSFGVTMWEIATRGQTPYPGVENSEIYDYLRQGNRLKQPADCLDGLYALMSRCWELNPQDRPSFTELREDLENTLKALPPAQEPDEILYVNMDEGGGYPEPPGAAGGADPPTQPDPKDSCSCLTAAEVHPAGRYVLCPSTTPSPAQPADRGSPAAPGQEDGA

[12] = target: Serine/threonine-protein kinase B-raf (Homo sapiens, UniProt P15056, V600E); assay: Inhibition of bRaf V599E mutant
Angiopoietin-1 receptor = Angiopoietin-1 receptor (Homo sapiens, UniProt Q02763); assay: Inhibition of Tie2
[13] = target: Tyrosine-protein kinase ABL1 (Homo sapiens, UniProt P00519)
[14] = target: Tyrosine-protein kinase JAK2 (Homo sapiens, UniProt O60674); assay: Inhibition of JAK2
[15] = target: RAC-alpha serine/threonine-protein kinase (Homo sapiens, UniProt P31749); assay: Inhibition of PKB

Chain of Proto-oncogene tyrosine-protein kinase Src (P12931 2-536 limits assumed): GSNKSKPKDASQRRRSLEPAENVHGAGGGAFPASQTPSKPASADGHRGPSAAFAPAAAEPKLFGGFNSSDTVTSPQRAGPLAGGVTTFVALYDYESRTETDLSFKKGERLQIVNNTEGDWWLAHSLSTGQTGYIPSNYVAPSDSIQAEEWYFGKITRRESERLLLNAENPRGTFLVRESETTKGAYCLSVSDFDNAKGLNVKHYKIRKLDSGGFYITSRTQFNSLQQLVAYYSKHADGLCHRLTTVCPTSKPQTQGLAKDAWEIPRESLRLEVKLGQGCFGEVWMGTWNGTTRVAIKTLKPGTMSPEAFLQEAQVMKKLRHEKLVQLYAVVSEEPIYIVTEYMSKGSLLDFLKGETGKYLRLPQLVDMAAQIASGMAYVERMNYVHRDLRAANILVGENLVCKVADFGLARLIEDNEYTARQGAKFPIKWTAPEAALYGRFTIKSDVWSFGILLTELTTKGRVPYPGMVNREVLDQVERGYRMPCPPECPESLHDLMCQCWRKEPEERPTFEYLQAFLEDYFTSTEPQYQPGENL
Chain of Tyrosine-protein kinase ABL1 (P00519 whole entry): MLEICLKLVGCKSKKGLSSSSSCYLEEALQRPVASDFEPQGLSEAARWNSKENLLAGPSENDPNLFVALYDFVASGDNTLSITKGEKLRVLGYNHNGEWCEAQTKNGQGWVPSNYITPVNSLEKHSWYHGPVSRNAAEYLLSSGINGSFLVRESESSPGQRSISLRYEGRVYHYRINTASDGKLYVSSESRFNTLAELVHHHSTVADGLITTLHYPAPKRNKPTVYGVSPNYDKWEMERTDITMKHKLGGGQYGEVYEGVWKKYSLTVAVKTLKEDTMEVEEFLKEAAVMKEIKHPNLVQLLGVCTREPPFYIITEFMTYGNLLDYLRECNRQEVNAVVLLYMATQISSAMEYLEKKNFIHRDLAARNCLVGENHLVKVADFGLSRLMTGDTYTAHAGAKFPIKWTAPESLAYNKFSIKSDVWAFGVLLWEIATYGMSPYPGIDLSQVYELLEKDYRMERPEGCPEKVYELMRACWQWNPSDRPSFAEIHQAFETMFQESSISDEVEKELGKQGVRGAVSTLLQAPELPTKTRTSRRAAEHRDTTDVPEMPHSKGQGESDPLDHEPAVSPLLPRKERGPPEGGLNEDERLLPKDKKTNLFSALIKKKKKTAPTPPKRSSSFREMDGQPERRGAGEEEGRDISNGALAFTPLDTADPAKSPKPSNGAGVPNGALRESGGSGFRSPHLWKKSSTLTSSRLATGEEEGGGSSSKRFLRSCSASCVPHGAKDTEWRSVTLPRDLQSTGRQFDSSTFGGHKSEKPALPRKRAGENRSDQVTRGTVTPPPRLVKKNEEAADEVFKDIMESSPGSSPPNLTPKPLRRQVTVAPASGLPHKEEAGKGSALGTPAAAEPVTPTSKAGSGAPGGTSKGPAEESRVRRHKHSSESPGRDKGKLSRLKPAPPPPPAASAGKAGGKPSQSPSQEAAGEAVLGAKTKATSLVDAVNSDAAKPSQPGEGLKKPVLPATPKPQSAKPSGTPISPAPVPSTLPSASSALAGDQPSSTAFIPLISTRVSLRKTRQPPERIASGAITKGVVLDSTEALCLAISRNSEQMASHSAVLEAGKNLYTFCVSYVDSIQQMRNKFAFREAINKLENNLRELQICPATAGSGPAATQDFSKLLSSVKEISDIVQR
Chain of Hepatocyte growth factor receptor (P08581 whole entry): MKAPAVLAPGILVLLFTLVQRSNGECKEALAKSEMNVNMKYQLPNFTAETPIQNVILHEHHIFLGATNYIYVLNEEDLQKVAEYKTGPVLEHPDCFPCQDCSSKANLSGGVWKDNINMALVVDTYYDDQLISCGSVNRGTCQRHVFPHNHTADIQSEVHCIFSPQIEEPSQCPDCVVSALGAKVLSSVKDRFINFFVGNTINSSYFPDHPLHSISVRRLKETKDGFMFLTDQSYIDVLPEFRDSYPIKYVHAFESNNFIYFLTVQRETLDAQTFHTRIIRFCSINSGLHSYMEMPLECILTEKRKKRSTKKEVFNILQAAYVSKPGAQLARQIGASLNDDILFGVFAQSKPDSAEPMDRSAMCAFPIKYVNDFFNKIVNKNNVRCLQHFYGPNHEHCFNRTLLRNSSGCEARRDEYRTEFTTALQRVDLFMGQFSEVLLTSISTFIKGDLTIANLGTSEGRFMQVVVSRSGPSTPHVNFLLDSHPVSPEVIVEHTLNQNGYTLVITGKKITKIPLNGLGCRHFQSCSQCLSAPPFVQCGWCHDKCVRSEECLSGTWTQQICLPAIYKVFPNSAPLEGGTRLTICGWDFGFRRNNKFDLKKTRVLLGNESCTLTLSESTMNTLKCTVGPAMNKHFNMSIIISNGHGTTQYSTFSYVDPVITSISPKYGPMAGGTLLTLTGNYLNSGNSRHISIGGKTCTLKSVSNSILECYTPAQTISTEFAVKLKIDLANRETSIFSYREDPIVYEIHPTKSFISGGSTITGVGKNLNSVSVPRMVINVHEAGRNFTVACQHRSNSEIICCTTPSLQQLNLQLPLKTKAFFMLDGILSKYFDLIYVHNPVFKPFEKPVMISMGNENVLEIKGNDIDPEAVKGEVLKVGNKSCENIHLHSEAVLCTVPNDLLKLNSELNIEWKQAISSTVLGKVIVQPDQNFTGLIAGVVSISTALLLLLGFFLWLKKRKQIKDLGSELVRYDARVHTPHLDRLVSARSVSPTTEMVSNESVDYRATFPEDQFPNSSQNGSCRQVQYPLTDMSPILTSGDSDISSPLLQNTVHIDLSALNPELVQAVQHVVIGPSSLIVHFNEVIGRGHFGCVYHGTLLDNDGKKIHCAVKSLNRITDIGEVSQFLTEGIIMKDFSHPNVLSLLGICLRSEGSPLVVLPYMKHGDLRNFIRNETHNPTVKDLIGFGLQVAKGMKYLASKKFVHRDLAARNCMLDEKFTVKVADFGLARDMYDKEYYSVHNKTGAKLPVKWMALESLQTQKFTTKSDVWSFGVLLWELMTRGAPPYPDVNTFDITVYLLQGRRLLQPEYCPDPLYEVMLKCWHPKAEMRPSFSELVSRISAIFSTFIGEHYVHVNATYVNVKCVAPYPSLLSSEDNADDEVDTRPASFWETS
Chain of Mast/stem cell growth factor receptor Kit (P10721 whole entry): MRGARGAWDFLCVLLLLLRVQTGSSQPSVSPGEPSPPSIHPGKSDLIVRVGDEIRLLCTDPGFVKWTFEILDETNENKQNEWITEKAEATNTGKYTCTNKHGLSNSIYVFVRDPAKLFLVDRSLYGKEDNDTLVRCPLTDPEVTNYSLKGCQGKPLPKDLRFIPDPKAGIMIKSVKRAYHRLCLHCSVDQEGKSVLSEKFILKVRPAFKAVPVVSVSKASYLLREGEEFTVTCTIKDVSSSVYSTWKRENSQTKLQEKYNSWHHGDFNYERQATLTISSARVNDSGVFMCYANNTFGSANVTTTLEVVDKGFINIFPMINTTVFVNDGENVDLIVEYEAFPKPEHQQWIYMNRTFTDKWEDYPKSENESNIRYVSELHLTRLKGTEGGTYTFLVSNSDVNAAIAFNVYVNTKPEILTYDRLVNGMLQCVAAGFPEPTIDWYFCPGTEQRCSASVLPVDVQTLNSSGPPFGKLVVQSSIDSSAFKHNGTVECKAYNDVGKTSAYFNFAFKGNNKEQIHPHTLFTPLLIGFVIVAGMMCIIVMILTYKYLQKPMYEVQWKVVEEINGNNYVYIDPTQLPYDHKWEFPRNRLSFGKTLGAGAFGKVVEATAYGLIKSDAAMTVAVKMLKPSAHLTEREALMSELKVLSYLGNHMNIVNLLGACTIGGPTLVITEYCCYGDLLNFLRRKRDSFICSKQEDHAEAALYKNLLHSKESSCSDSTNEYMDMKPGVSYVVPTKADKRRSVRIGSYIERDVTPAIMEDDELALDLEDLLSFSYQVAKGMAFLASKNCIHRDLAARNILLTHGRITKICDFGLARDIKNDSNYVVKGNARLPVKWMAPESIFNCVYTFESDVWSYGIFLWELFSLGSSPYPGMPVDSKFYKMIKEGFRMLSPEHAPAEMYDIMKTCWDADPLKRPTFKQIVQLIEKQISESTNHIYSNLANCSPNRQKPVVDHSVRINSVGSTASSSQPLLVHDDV
Chain of Serine/threonine-protein kinase B-raf (P15056 2-766 V600E limits assumed): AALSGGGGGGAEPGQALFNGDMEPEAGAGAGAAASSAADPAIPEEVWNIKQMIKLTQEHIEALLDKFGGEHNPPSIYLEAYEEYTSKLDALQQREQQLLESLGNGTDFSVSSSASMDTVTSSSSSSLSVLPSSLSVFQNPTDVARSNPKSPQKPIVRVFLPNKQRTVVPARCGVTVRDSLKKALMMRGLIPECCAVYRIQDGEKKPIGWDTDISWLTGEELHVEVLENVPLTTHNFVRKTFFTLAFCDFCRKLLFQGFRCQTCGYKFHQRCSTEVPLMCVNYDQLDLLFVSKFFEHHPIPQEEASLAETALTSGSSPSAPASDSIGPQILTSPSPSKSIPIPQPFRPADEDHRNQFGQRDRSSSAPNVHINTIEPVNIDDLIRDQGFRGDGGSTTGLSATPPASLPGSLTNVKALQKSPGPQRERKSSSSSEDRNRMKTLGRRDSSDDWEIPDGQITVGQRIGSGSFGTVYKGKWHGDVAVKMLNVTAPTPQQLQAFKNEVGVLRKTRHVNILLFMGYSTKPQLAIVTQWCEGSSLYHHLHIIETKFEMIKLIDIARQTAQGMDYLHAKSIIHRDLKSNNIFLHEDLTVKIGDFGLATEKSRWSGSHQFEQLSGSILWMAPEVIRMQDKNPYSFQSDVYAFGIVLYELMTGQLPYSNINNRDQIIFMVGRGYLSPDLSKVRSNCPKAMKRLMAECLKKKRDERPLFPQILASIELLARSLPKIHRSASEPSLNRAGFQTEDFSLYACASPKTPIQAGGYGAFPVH

CCN(CC)CCOc1ccc(Nc2cc(NC(=O)Nc3c(Cl)cccc3Cl)ncn2)cc1
IC50 [1]: 350 nM | IC50 (Ephrin type-B receptor 4): 430 nM | IC50 [2]: > 10000 nM | IC50 [3]: > 10000 nM | IC50 [4]: > 10000 nM | IC50 [5]: > 10000 nM | IC50 [6]: 930 nM | IC50 [7]: 570 nM | IC50 [8]: 66 nM | IC50 [9]: > 10000 nM | IC50 [10]: 960 nM | IC50 [11]: > 10000 nM | IC50 [12]: 150 nM | IC50 (Angiopoietin-1 receptor): 300 nM | IC50 [13]: 250 nM | IC50 [14]: > 10000 nM | IC50 [15]: > 10000 nM
